Experimental data published in patent publication US20090111736A1, “Orally-Absorbed Solid Dose Formulation for Vancomycin” (SRI International, priority 2007, published 2009).
Structures can show the parent of a compound that is named as a salt. Where two headings read alike, the source gives them in different places.

Legend:
rat colon = assay: In vitro mucosal-to-serosal vancomycin transport, modified Ussing chambers, colon; type: in vitro ADME; conditions: 5 mg/ml vancomycin in HEPES buffer
Excerpt: (§1) We investigated regional variation in permeation of vancomycin (VCM) across various segments of rat intestine and colon in vitro by mounting isolated segments of rat intestine and colon between horizontal modified Ussing chambers. The effects of drug concentration and of addition of a p-glycoprotein inhibitor or permeation enhancer(s) as formulation additives on VCM permeation were also studied in vitro using segments of rat jejunum.
(§2) Methods: A modified Ussing system (Easy mount Ussing system, Physiological Instruments Inc., CA, Item # EM-CSYS-8) with eight sets of chambers was used for all in vitro studies; each set consisted of two parallel diffusion chambers, a heating block for temperature control, needle valves for gas flow adjustment and gas mixing, and Ag/AgCl voltage and current electrodes for measuring transepithelial voltage and for passing current.
(§3) Harvesting of required small intestinal or colon segments of a male rat was performed using experimental procedures described in the literature (Gotoh et al., J Biomol Screen (2005) 10:517-23). The harvested segments of small intestine or colon were mounted on sliders placed between the two horizontal chambers of a modified Ussing system.
(§4) VCM was dissolved in HEPES buffer pH 7.4 (Table 1) previously saturated with 100% O2 or HEPES buffer containing additives selected from permeation enhancer(s) and/or an efflux transport inhibitor (Table 2) to obtain predetermined concentrations of drug and additive(s).
(§5) Drug transport across epithelial membranes of harvested rat small intestine and colon segments, in mucosal-to-serosal (M-to-S) direction, was studied using modified Ussing Chambers. Aliquots of HEPES buffer (5 ml) were initially added to both the mucosal and serosal chambers and allowed to equilibrate for 20 minutes. The HEPES buffer in the mucosal chamber was replaced by a study sample containing VCM alone or VCM and selected additive(s) in HEPES buffer, e.g., 5 mg/mL of VCM dissolved in HEPES buffer containing 10% w/w Labrasol®. Aliquots of 0.5 mL buffer solutions were removed periodically from serosal chambers, and replaced with equal volumes of fresh warm (37±2° C.) HEPES buffer previously saturated with 100% O2. To study the effect of additives in the serosal chamber (i.e., quinidine and sodium decanoate), HEPES buffer containing the selected additive was placed in the serosal chamber and replaced with the same buffer composition during sampling.
(§6) Changes in transepithelial short-circuit current (in micro-Amps) and membrane resistance (in Ohms) as a function of time were monitored continuously during in vitro studies to serve as indicators of tissue viability and drug permeability, respectively. The buffer samples from the receptor chambers were analyzed for VCM content on a high pressure liquid chromatograph (HPLC; Hewlett Packard Model 1100 series).
(§7) The analysis of VCM samples was performed using a reverse phase gradient HPLC method, with a Hypersil BDS C18 column, 5 μm, 150×4.6 mm., mobile phase consisting of 5 mM potassium phosphate monobasic in water (pH 3) as solvent A and acetonitrile as solvent B at a flow rate of 1 ml/min (Farin et al., J Pharm Biomed Anal (1998) 18:367-72). The eluant was monitored by a UV/diode array detector at 280 nm.
(§8) To compare data obtained from different in vitro experiments, the apparent permeability coefficients were calculated using the equation: […]
(§9) Where dQ/dt is the linear appearance rate of mass in receiver compartment, C0 is the initial solute concentration in donor compartment, and A is the surface area (Luo et al., Drug Metab Dispos (2002) 30:763-70).

[1] = as above; type: in vitro ADME, rat; conditions: male, rat, pH 7.4, 5 mg/ml, HEPES buffer alone
Excerpt: as §1, §2, §3, §4, §5, §6, §7, §8, §9

[2] = cited from earlier work
[3] = rats, cited from earlier work

Compound: CN[C@H](CC(C)C)C(=O)N[C@H]1C(=O)N[C@@H](CC(N)=O)C(=O)N[C@H]2C(=O)N[C@H]3C(=O)N[C@H](C(=O)N[C@H](C(=O)O)c4cc(O)cc(O)c4-c4cc3ccc4O)[C@H](O)c3ccc(c(Cl)c3)Oc3cc2cc(c3O[C@@H]2O[C@H](CO)[C@@H](O)[C@H](O)[C@H]2O[C@H]2C[C@](C)(N)[C@H](O)[C@H](C)O2)Oc2ccc(cc2Cl)[C@H]1O [Vancomycin hydrochloride]
- Ave. Cumulative Amt VCM Released (rat colon; 0.5 hr): 0.00 ± 0.00 µg
- Ave. Cumulative Amt VCM Released (rat colon; 1.0 hr): 0.00 ± 0.00 µg
- Ave. Cumulative Amt VCM Released (rat colon; 1.5 hr): 1.93 ± 0.38 µg
- Ave. Cumulative Amt VCM Released (rat colon; 2.0 hr): 4.20 ± 0.99 µg
- Ave. Cumulative Amt VCM Released (rat colon; 2.5 hr): 7.15 ± 1.82 µg
- Papp at 2.5 hr, 5 mg/ml [1]: 0.41 ± 0.07 ×10⁻⁶ cm/s
- solubility in water [2]: soluble in water
- absolute bioavailability ([3]; oral administration of a water-in-oil-in-water (w/o/w) emulsion, VCM in inner aqueous phase): About 30%
- absolute bioavailability ([3]; oral, without any added absorption enhancer or enzyme inhibitor): less than 5%
